Experimental data from patent publication US8883410B2, “Method for determining the stability of organic methyleneamines in the presence of semicarbazide-sensitive amine oxidase” (Sanofi, priority 2007, dated 2014).

Biological target: T1, human SSAO, full-length, untagged (Homo sapiens, UniProt Q16853)
T1 construct: expressed in transfected cells; cleared NP-40 cell lysate
T1 sequence (Q16853 1-763): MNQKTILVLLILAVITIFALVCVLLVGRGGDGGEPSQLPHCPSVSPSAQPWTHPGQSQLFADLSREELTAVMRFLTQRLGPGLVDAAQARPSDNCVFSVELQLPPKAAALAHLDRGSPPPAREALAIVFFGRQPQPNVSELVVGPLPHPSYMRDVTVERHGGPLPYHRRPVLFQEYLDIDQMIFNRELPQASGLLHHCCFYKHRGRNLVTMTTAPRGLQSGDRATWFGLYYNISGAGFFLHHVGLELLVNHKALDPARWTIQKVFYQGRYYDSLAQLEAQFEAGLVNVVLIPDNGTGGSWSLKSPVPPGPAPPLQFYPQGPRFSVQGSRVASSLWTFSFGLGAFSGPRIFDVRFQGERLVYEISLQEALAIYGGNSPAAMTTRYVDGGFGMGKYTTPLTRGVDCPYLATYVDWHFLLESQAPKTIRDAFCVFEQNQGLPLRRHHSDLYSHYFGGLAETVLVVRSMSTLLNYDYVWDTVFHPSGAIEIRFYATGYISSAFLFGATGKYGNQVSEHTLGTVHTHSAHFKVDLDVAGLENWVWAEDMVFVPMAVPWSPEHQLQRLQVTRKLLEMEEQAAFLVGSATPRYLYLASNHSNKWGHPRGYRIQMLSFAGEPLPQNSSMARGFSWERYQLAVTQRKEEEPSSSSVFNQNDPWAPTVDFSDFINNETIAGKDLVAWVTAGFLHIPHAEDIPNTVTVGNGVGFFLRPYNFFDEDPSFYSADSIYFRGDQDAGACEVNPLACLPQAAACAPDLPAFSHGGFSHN
Assay: Benzylamine stability in lysate of cells expressing full-length SSAO (untagged), LC/MS/MS
Format: in vitro ADME
Experimental: The expression constructs were prepared by cloning these PCR products into the pCDNA5-FRT-To-DEST vector (Invitrogen, Gateway System™). The forward and reverse DNA sequence of each construct was confirmed including expressed sequences and at least 100 base pairs either side of this. Stable cell lines for Flp-In CHO, Flp-In CHO T-Rex, and Flp-In HEK 293 (Invitrogen, Flp-In system™) were generated using these 6 constructs according to manufacturer's instructions. Cells were co-transfected with the regulatory vector, pOG44, and each of the pCDNA5-FRT-To-DEST constructs using Lipfectamine (Invitrogen) according to manufacturer's instructions. Thus, 18 cell lines were generated: CHO Flp-In full-length SSAO; CHO Flp-In full-length SSAO with C-terminal 6×HIS tag; CHO Flp-In T1 SSAO; CHO Flp-In T1 SSAO with C-terminal 6×HIS tag; CHO Flp-In T2 SSAO; CHO Flp-In T2 SSAO with C-terminal 6×HIS tag; CHO T-Rex Flp-In full-length SSAO; CHO T-Rex Flp-In full-length SSAO with C-terminal 6×HIS tag; CHO T-Rex Flp-In T1 SSAO; CHO T-Rex Flp-In T1 SSAO with C-terminal 6×HIS tag; CHO T-Rex Flp-In T2 SSAO; CHO Flp-In T2 SSAO with C-terminal 6×HIS tag; HEK 293 Flp-In full-length SSAO; HEK 293 Flp-In full-length SSAO with C-terminal 6×HIS tag; HEK 293 Flp-In T1 SSAO; HEK 293 Flp-In T1 SSAO with C-terminal 6×HIS tag; HEK 293 Flp-In T2 SSAO; HEK 293 Flp-In T2 SSAO with C-terminal 6×HIS tag.
Adherent CHO cells were cultured at 37° C., 5% CO2 in media containing Ham's F12, 10% fetal bovine serum, 2 mM L-glutamine, 1% Penicillin/Streptomycin, 300 μM hygromycin B. Adherent HEK 293 cells were cultured at 37° C., 5% CO2 in D-MEM (high glucose), 10% fetal bovine serum, 2 mM L-glutamine, and 200 μM hygromycin B. Stable transformants were identified by loss of zeocin resistance. Once the cells were 80% confluent, SSAO expression was induced by the addition of Tetracycline to 1 μg/mL. Following 18 hours, the cells were harvested using a trypsin treatment of 3 minutes, at room temperature. Cells were washed 3 times in phosphate buffered saline before flash freezing in liquid nitrogen.
For the preparation of cell lysate for activity testing, frozen cell pellets were resuspended in lysate buffer containing 10 mM Tris-HCl (pH 7.2), 150 mM NaCl, 1.5 mM MgCl2, 1% v/v NP-40 and incubated for 15 minutes on ice. Lysate was cleared by centrifugation 800×g for 10 minutes, 4° C. and stored in aliquots at −80° C. until use. Proteins were determined using Pierce Coomassie Protein Reagent, according to manufacturer's instructions.
For each assay run, 1 mL of cell lysate (1.5 mg/mL protein) was mixed with benzylamine to 2000 ng/mL final concentration. At each corresponding time point, […] the incubation mixture was transferred to a microcentrifuge tube (1.7 mL) and mixed with 50 μL of acetonitrile. The tubes were vortex mixed briefly to ensure complete mixing and then centrifuged at 10,000×g for 5 minutes. The supernatant was removed and 50 μL was transferred to an autosampler vial and mixed with 50 μL of water before LC/MS/MS analysis. Benzylamine remaining in the lysate was analyzed with LC/MS/MS method.
LC/MS/MS analysis was performed with a PE Sciex API 3000 mass spectrometer under the following conditions listed below and in Tables 1 and 2:
The active lysates from CHO Flp-In, CHO Flp-In T-Rex or HEK293 Flp-In expressing full-length SSAO (untagged) were subsequently tested and activity confirmed (Table 4).

Q: `NCc1ccccc1` [Benzylamine] was tested. Which “Benzylamine Remaining (%)” value (CHO Flp-In T-Rex lysate, Full-length SSAO, tag None, 0 min (Table 3)) did it give?
A: 100%

Q: What about the “Benzylamine Remaining (%)” value (CHO Flp-In T-Rex lysate, Full-length SSAO, tag None, 10 min (Table 3)) of the same compound?
A: 6%

Q: What about the “Benzylamine Remaining (%)” value (CHO Flp-In T-Rex lysate, Full-length SSAO, tag None, 2 h (Table 3)) of the same compound?
A: 0%

Q: And the “Benzylamine Remaining (%)” value (CHO Flp-In T-Rex, full-length SSAO (untagged), 0 min, subsequent test (Table 4))?
A: 100%

Q: What about the “Benzylamine Remaining (%)” value (CHO Flp-In T-Rex, full-length SSAO (untagged), 10 min, subsequent test (Table 4)) of the same compound?
A: 16%

Q: And the “Benzylamine Remaining (%)” value (CHO Flp-In T-Rex, full-length SSAO (untagged), 30 min, subsequent test (Table 4))?
A: 1%

Q: What about the “Benzylamine Remaining (%)” value (CHO Flp-In lysate, Full-length SSAO, tag None, 0 min (Table 3)) of the same compound?
A: 100%

Q: What about the “Benzylamine Remaining (%)” value (CHO Flp-In lysate, Full-length SSAO, tag None, 10 min (Table 3)) of the same compound?
A: 1%

Q: What about the “Benzylamine Remaining (%)” value (CHO Flp-In lysate, Full-length SSAO, tag None, 2 h (Table 3)) of the same compound?
A: 1%

Q: What about the “Benzylamine Remaining (%)” value (CHO Flp-In, full-length SSAO (untagged), 0 min, subsequent test (Table 4)) of the same compound?
A: 100%

Q: What about the “Benzylamine Remaining (%)” value (CHO Flp-In, full-length SSAO (untagged), 10 min, subsequent test (Table 4)) of the same compound?
A: 9%

Q: What about the “Benzylamine Remaining (%)” value (CHO Flp-In, full-length SSAO (untagged), 30 min, subsequent test (Table 4)) of the same compound?
A: 1%

Q: What about the “Benzylamine Remaining (%)” value (HEK293 Flp-In, full-length SSAO (untagged), 0 min, subsequent test (Table 4)) of the same compound?
A: 100%

Q: And the “Benzylamine Remaining (%)” value (HEK293 Flp-In, full-length SSAO (untagged), 10 min, subsequent test (Table 4))?
A: 50%

Q: What about the “Benzylamine Remaining (%)” value (HEK293 Flp-In, full-length SSAO (untagged), 30 min, subsequent test (Table 4)) of the same compound?
A: 9%

Q: And the “Benzylamine Remaining (%)” value (HEK293 lysate, Full-length SSAO, tag None, 0 min (Table 3))?
A: 100%

Q: What about the “Benzylamine Remaining (%)” value (HEK293 lysate, Full-length SSAO, tag None, 10 min (Table 3)) of the same compound?
A: 58%

Q: What about the “Benzylamine Remaining (%)” value (HEK293 lysate, Full-length SSAO, tag None, 2 h (Table 3)) of the same compound?
A: 2%
